Experimental data published in ChEMBL document CHEMBL1150976, “The selectivity of protein kinase inhibitors: a further update” (Biochem J, 2007).

Experiments:
[1] = molecular target: T1, Serine/threonine-protein kinase D1 (Homo sapiens) (UniProt Q15139); test: Percentage PKD1 activity remaining in the presence of 0.01uM inhibitor
T1 sequence (whole entry): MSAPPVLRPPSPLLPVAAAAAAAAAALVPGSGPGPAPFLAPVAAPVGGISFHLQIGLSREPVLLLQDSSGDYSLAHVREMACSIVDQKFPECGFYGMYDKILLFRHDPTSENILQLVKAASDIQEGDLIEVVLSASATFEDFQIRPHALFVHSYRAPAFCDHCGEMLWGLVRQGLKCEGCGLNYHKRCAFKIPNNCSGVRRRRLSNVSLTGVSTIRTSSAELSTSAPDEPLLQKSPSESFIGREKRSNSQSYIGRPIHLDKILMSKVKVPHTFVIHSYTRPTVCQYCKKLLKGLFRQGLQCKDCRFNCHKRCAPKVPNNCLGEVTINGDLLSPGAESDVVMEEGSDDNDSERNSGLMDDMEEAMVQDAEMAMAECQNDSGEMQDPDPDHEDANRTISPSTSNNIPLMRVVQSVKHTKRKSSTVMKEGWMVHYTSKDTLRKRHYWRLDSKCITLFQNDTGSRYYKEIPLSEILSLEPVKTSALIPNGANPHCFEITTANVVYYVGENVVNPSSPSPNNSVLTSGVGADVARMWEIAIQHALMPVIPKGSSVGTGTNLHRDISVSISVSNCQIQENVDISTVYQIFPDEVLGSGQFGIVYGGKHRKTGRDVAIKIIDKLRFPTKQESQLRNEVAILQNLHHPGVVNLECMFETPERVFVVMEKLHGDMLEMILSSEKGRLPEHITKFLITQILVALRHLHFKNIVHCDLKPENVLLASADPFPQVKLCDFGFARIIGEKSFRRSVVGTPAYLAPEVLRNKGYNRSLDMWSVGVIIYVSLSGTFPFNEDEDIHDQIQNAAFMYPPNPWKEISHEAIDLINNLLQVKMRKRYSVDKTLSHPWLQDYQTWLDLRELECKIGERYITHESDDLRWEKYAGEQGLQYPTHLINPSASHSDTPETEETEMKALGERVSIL

Aurora kinase B = Aurora kinase B (Homo sapiens, UniProt Q96GD4); test: Percentage Aurora B activity remaining in the presence of 0.01uM inhibitor
Chain of Aurora kinase B (Q96GD4 whole entry): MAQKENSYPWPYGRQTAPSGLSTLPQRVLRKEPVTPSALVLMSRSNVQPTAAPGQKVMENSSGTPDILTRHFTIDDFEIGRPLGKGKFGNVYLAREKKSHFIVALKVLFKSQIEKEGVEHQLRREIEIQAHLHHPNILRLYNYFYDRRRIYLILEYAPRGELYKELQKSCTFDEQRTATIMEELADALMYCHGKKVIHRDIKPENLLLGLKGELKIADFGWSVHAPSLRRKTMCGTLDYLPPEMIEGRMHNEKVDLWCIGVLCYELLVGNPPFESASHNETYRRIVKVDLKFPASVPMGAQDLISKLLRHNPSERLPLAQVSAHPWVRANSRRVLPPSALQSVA

[2] = molecular target: T2, MAP kinase-activated protein kinase 5 (Homo sapiens) (UniProt Q8IW41); test: Percentage PRAK activity remaining in the presence of 0.01uM inhibitor
T2 sequence (whole entry): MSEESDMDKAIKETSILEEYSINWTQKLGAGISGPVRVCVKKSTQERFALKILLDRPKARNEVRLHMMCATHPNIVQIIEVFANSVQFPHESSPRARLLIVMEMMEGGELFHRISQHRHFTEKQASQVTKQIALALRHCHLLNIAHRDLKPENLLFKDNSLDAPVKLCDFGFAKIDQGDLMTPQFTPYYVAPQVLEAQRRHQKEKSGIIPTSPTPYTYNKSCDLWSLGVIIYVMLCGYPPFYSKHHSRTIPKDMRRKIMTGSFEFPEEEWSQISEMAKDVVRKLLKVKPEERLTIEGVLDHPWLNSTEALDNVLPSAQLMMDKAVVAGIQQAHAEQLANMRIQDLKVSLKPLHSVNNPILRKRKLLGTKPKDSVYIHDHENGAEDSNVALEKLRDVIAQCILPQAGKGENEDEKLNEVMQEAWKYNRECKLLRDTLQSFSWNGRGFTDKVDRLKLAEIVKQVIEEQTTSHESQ

[3] = molecular target: Casein kinase II (Homo sapiens) (UniProt P67870+P68400+P19784); test: Percentage CK2 activity remaining in the presence of 0.01uM inhibitor; assay type: protein-complex assay
[4] = molecular target: Ribosomal protein S6 kinase beta-1 (Homo sapiens, UniProt P23443); test: Percentage S6K1 activity remaining in the presence of 0.01uM inhibitor
Chain of Ribosomal protein S6 kinase beta-1 (P23443 whole entry, looked up): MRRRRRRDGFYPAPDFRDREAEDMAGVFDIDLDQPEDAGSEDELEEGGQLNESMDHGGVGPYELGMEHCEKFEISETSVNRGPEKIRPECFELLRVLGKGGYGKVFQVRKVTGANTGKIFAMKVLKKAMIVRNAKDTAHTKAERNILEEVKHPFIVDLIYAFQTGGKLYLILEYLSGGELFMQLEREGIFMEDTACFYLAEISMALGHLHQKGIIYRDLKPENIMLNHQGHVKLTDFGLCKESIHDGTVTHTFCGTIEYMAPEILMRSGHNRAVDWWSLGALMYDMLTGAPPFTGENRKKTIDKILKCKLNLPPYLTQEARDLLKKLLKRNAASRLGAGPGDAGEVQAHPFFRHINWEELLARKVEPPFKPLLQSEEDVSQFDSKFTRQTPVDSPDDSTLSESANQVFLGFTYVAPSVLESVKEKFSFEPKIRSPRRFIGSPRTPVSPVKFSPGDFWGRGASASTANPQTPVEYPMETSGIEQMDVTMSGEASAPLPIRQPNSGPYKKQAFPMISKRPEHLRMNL

[5] = molecular target: Serine/threonine-protein kinase PAK 6 (Homo sapiens) (UniProt Q9NQU5); test: Percentage PAK6 activity remaining in the presence of 0.01uM inhibitor
Chain of Serine/threonine-protein kinase PAK 6 (Homo sapiens) (Q9NQU5 whole entry, looked up): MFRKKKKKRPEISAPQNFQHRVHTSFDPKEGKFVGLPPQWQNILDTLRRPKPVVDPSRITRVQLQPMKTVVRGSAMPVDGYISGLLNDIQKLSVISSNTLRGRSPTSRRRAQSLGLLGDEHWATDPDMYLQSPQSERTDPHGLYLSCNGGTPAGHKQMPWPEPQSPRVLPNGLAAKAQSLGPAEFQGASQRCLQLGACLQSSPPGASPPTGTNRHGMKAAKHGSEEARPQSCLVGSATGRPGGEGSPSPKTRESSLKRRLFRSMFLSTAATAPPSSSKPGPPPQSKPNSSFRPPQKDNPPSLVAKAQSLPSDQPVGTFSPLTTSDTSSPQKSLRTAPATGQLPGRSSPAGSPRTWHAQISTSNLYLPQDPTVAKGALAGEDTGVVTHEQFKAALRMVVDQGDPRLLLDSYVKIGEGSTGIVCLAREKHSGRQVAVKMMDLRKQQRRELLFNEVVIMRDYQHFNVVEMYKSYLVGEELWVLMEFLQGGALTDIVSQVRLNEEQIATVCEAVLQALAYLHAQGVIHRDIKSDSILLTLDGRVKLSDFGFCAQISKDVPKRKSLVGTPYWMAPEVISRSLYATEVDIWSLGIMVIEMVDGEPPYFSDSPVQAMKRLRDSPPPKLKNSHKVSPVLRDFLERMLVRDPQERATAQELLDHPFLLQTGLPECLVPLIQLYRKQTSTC

[6] = molecular target: Serine/threonine-protein kinase pim-2 (Homo sapiens, UniProt Q9P1W9); test: Percentage PIM2 activity remaining in the presence of 0.01uM inhibitor
Chain of Serine/threonine-protein kinase pim-2 (Q9P1W9 whole entry, looked up): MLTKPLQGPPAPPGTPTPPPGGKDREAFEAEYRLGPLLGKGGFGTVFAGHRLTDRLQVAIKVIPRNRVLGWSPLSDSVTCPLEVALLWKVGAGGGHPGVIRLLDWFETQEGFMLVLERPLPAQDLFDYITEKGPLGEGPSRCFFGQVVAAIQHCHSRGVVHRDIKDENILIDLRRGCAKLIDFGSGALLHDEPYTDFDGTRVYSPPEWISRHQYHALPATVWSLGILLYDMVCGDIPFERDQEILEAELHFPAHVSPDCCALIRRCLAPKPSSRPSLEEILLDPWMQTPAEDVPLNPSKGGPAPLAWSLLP

[7] = molecular target: SRSF protein kinase 1 (Homo sapiens) (UniProt Q96SB4); test: Percentage SRPK1 activity remaining in the presence of 0.01uM inhibitor
[8] = molecular target: Serine/threonine-protein kinase Chk2 (Homo sapiens) (UniProt O96017); test: Percentage CHK2 activity remaining in the presence of 25uM inhibitor
[9] = molecular target: Ribosomal protein S6 kinase alpha-3 (Homo sapiens) (UniProt P51812); test: Percentage RSK2 activity remaining in the presence of 25uM inhibitor
Chain of Ribosomal protein S6 kinase alpha-3 (Homo sapiens) (P51812 whole entry): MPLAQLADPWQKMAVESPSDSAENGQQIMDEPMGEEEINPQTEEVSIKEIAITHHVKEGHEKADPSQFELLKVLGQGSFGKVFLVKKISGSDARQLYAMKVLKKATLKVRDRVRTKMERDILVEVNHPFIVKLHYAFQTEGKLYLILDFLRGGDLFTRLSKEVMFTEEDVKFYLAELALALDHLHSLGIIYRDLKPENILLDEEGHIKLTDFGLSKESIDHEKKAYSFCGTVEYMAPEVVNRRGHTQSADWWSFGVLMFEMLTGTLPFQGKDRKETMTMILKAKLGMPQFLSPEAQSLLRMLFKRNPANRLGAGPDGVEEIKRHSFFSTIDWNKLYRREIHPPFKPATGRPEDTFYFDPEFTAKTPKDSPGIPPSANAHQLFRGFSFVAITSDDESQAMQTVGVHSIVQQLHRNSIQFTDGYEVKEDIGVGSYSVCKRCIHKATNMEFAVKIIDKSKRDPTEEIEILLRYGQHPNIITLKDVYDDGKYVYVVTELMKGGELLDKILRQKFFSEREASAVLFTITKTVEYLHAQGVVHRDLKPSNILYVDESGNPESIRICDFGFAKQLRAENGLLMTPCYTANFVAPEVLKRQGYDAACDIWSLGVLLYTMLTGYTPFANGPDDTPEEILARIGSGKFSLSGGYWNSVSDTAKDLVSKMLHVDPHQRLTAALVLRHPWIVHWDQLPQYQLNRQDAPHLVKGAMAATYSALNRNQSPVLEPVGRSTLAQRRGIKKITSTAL

[10] = molecular target: MAP kinase-activated protein kinase 2 (Homo sapiens) (UniProt P49137); test: Percentage MAPKAPK2 activity remaining in the presence of […]uM inhibitor; conditions: at 25 µM
Chain of MAP kinase-activated protein kinase 2 (Homo sapiens) (P49137 whole entry, looked up): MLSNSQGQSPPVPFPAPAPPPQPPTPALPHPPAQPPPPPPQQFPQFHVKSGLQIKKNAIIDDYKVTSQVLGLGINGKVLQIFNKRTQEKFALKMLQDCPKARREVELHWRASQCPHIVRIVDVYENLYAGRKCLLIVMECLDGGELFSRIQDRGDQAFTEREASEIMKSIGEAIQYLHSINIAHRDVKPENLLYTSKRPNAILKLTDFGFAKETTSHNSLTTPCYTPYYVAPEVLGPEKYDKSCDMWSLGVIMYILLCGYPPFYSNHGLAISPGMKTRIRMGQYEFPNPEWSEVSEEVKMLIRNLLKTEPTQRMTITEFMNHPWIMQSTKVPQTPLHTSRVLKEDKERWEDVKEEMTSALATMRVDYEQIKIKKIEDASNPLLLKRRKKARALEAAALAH

[11] = molecular target: RAC-beta serine/threonine-protein kinase (Homo sapiens) (UniProt P31751); test: Percentage PKBbeta activity remaining in the presence of 25uM inhibitor
Chain of RAC-beta serine/threonine-protein kinase (Homo sapiens) (P31751 whole entry): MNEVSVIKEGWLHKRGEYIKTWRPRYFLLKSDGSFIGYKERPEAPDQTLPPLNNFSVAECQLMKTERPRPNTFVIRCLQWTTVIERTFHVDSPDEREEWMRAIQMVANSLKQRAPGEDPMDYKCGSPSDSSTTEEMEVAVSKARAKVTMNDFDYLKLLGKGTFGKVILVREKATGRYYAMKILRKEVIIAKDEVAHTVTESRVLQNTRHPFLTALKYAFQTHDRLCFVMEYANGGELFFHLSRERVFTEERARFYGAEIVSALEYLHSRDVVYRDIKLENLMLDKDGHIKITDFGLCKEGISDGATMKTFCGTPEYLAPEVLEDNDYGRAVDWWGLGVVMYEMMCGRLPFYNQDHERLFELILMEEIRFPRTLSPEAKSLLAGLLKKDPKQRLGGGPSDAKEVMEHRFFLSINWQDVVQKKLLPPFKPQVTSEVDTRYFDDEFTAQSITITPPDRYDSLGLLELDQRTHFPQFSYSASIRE

[12] = molecular target: MAP kinase-interacting serine/threonine-protein kinase 2 (Homo sapiens) (UniProt Q9HBH9); test: Percentage MNK2 activity remaining in the presence of 25uM inhibitor
Chain of MAP kinase-interacting serine/threonine-protein kinase 2 (Homo sapiens) (Q9HBH9 whole entry, looked up): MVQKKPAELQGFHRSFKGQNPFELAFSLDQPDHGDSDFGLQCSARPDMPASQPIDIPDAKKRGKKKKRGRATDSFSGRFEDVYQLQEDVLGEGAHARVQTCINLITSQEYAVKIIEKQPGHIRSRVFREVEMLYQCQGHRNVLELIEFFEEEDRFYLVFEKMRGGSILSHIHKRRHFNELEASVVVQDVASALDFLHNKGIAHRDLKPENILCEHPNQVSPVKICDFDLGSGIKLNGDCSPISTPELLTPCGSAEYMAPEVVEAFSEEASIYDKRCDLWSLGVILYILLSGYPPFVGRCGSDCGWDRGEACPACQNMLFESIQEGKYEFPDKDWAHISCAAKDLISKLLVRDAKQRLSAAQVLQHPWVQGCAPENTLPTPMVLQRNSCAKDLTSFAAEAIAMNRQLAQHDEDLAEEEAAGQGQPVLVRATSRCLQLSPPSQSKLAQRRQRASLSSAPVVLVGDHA

[13] = molecular target: T3, Mitogen-activated protein kinase 15 (Homo sapiens) (UniProt Q8TD08); test: Percentage ERK8 activity remaining in the presence of 25uM inhibitor
T3 sequence (whole entry): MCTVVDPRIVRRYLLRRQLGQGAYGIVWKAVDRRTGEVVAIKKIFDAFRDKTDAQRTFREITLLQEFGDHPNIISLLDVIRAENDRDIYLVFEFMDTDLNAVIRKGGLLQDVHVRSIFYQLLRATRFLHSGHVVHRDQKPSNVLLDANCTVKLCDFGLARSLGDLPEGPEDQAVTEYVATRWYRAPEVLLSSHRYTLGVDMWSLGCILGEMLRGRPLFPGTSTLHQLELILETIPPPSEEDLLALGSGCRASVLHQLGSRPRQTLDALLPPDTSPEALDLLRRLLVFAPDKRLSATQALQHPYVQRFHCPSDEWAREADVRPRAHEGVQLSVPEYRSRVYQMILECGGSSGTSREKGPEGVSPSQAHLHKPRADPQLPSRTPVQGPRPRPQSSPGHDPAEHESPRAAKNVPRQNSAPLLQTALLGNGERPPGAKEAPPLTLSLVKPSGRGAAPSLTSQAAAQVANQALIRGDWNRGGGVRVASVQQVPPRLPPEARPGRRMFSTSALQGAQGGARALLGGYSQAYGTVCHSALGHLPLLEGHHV

[14] = molecular target: Mitogen-activated protein kinase 11 (Homo sapiens) (UniProt Q15759); test: Percentage p38beta activity remaining in the presence of 25uM inhibitor
Chain of Mitogen-activated protein kinase 11 (Homo sapiens) (Q15759 whole entry): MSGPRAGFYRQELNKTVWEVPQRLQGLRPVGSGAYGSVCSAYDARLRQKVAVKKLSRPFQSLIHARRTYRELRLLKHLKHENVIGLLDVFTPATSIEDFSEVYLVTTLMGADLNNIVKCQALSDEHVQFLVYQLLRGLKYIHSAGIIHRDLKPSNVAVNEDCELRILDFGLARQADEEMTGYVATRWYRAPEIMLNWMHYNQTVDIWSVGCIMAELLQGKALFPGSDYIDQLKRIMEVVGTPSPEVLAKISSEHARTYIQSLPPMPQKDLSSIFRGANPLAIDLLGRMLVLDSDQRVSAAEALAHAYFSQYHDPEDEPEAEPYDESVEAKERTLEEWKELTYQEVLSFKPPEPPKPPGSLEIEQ

[15] = molecular target: RAC-alpha serine/threonine-protein kinase (Homo sapiens) (UniProt P31749); test: Percentage PKBalpha activity remaining in the presence of 25uM inhibitor
Chain of RAC-alpha serine/threonine-protein kinase (Homo sapiens) (P31749 whole entry): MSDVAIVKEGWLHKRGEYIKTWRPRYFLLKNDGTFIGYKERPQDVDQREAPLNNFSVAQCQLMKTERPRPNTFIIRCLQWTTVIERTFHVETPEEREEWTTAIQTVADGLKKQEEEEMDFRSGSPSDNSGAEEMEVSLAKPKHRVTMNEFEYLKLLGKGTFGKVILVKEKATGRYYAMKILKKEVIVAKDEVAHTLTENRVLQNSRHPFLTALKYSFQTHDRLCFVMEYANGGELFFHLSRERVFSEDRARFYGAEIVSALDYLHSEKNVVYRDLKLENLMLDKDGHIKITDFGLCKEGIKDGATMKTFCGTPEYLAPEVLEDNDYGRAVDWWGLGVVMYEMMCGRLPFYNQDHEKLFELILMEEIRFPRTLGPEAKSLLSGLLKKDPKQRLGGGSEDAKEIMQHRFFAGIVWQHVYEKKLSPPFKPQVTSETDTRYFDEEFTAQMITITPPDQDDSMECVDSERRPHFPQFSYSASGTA

| SMILES | Activity [1] [%] | Activity (Aurora kinase B; filed as antagonist) [%] | Activity [2] [%] | Activity [3] [%] | Activity [4] [%] | Activity [5] [%] | Activity [6] [%] | Activity [7] [%] | Activity (Aurora kinase B) [%] | Activity ([5]; filed as antagonist) [%] | Activity [8] [%] | Activity [9] [%] | Activity [10] [%] | Activity [11] [%] | Activity [12] [%] | Activity [13] [%] | Activity [14] [%] | Activity [15] [%] | Activity ([13]; filed as antagonist) [%] |
| --- | --- | --- | --- | --- | --- | --- | --- | --- | --- | --- | --- | --- | --- | --- | --- | --- | --- | --- | --- |
| O=C(NCCCNc1nc(Nc2cccc(NC(=O)N3CCCC3)c2)ncc1I)c1cccs1 | 84 | 17 | 97 | 93 | 100 | 92 | 108 | 99 | – | – | – | – | – | – | – | – | – | – | – |
| Cc1n[nH]c2ccc(-c3cncc(OC[C@@H](N)Cc4c[nH]c5ccccc45)c3)cc12 | 63 | – | 107 | 96 | 88 | 87 | 59 | 92 | 81 | – | – | – | – | – | – | – | – | – | – |
| CN[C@@H]1C[C@H]2O[C@@](C)([C@@H]1OC)n1c3ccccc3c3c4c(c5c6ccccc6n2c5c31)C(=O)N[C@H]4O (stereo in doubt) | 83 | – | 83 | 92 | 96 | – | 73 | – | 59 | 35 | – | – | – | – | – | – | – | – | – |
| COc1cc(OC)c(/C=C2/C(=O)Nc3ccccc32)c(OC)c1 | – | – | – | – | – | – | – | – | – | – | 76 | 89 | 88 | 90 | 97 | 68 | 97 | 94 | – |
| NCCNS(=O)(=O)c1ccc(Cl)c2ccncc12 | – | – | – | – | – | – | – | – | – | – | 64 | 63 | 85 | 89 | 76 | – | 101 | 54 | 29 |
